Results on three compounds are retold here after patent US6552073B1, “Compounds and methods of treating cell proliferative diseases” (Exonhit Therapeutics SA, priority 2002, dated 2003).

Usually melting point stands for the temperature of the solid-liquid transition.

Entries after “also recorded” stand apart in the source; their conditions may differ.

The test system of series [1] is NIH3T3 cells transfected with RasV12. Kind of series: Colony formation assay in the presence of constitutively activated Ras (RasV12). In kind it is cell-based, mouse. As to conditions: for Ras-dependent neoR clones formation: NIH3T3, RasV12; for Colony formation: NIH3T3, neoR colonies. On the set-up: key to Colony formation: −: no effect of the compound was observed; +: an effect of the compound was observed. Here is the method:
c) Ras/Rac-dependant Signaling Pathway Analysis
The impact of the compounds on Ras and Rac signaling pathways was analysed with two reporter systems described by Imler (Nature 1988) and Lin (Science, 1995) respectively on one hand, and by a colony formation assay in the presence of constitutively activated Ras (RasV12) and Rac (RacV12) on the other hand. For this latter experiment, fifty percent confluent NIH3T3 cells in a 10 cm diameter petri dish were transfected with 0.5 μg pSV2-RasV12 or 0.5 μg pEXV RacV12 plasmids plus 100 ng of pSV2-neomycin plasmid using Lipofectamine-Plus reagent (Invitrogen) according to the manufacturer's instructions. Forty-eight hours later, cells were trypsinised, splitted to 1/3, and incubated in the presence of complete medium supplemented with 400 μg/ml geneticin (Invitrogen) and different doses of compound (1, 10, 17.5, 25 and 50 μM) until emerging resistant clones appear (2-3 weeks). The medium was renewed every 3 days. Colonies with a minimum of 50 cells were counted after staining with Fuschin 2%.

Series [2] has as its system MMP-9. Kind of series: Gelatin zymography. It counts as cell-based, human. The settings on record: zymogram gel, MDA-MB-231 supernatant. Here is the method: (§1) The activity of the metalloproteases MMP-2 and MMP-9 was assayed using gelatinolytic zymography according to Lambert (Surgery 1997). Briefly, MDA-MB-231 cells were incubated overnight in serum-free medium supplemented with ITS liquid supplement (Sigma) with different concentrations of compound (1, 10, 17.5, 25 and 50 μM). Supematant was collected and concentrated with Ultrafree 30 kDA (Millipore). Equal amount of proteins, as determined by Bradford measurement, were loaded onto a 10% w/v polyacrylamide gel containing 1% gelatin and 0.1% SDS (Novex). After electrophoresis, gels were washed in Novex Zymogram Renaturing buffer for 30 min at room temperature and incubated overnight at 37° C. in Novex Zymogram developing buffer. Gels were stained in Coomassie Brilliant Blue G-250, and the gelatinolytic activity was visualized as a clear band against the blue background of the stained gelatin.

Series [3] concerns MMP-2. Kind of series: Gelatin zymography. In kind it is cell-based, human. The settings on record: zymogram gel, MDA-MB-231 supernatant. Here is the method:
as §1

Series [4] has as its system NIH3T3. Kind of series: Cytoskeleton analysis, actin staining. In kind it is cell-based, mouse. Also noted: key to Cell architecture modification, actin staining NIH3T3, ruffles (R) / Cell architecture modification, actin staining NIH3T3, focal complexes (FC): a decrease in cellular ruffles density was noted R−; an increase in focal complexes density was noted FC+. Here is the method: (§2) Since major rearrangements of cytoskeleton are observed in tumor cells and since the small GTPases are known to regulate these events, analysis of actin cytoskeleton was performed. Subconfluent cells seeded onto coverslips were treated with different concentration of compound (1, 10, 17.5, 25 and 50 μM) or vehicle for 24 h, before being fixed in 4% formaldehyde for 15 min., permeabilized in 0.2% Triton X100 for 5 minutes and incubated in PowerBlock (Biogenex) for 10 min. Actin filaments were stained with 0.5 μg/ml fluorescein isothiocyanate (FITC)-labelled phalloidin for 1 hour. Analysis was performed using an inverted fluorescent microscope.

For series [5], the system named is MDA231. Kind of series: Cytoskeleton analysis, actin staining. In kind it is cell-based, human. As to the method: as §2
In series [6] the test system is MDA-MB-231 cells. Kind of series: Matrigel invasion assay (Boyden chamber). In kind it is cell-based, human. The settings on record: MDA-MB-231 cells. Here is the method:
d) Migration and Matrigel Invasion Assay
Chemoinvasion assay was performed in Boyden chamber as described by Albini et al (Cancer Res, 1987) with some modifications. Polycarbonate membranes with 8μm pores were coated with matrigel (125 μg/cm^2) at room temperature for 48 h. Two hours before experiments, the matrix was […] with serum-free medium containing 0.1% BSA.
One day after seeding, 10^6 MDA-MB-231 cells were treated overnight with different concentrations of compounds (1, 10, 17.5, 25 and 50 μM). Cells were collected with Versene (Invitrogen), counted with trypan blue exclusion, rinsed twice in serum-free medium containing 0.1% BSA and resuspended in serum-free medium containing 0.1% BSA plus the appropriate concentration of compound. 10^5 treated cells were placed in the upper chamber. Medium containing 10% of FBS plus the appropriate concentration of compound was placed in the lower chamber as a chemoattractant. The Boyden chamber was incubated 6 hours at 37° C. before the cells were fixed and stained with Diff-Quick (Dade-Berhing). Cells on the upper part of the filters were removed using a cotton swab. Cells on the underside of the filters were visualised and counted under light microscope. The migration assay was performed the same way, using non-coated filters.

Series [7] deals with HCT116. Kind of series: Cytoskeleton analysis, actin staining. In kind it is cell-based, human. Here is the method: as §2
For series [8], the system named is H460. Kind of series: Cytoskeleton analysis, actin staining. It counts as cell-based, human. As to the method: as §2

Take `CCCc1c(OCCCCCOc2coc(CO)cc2=O)ccc(Cl)c1Cl` [EH22900, 5-[5-(3,4-Dichloro-2-propylphenyloxy)pentyloxy]-2-(hydroxymethyl)-4H-pyran-4-one]: the melting point fell in the range of 85 to 86 °C. In series [1], the “Ras-dependent neoR clones formation” value is “inhibited” and the Colony formation result is “+”. The “concentration of dose-dependant inhibition of MMP-9” value in series [2] amounted to 5 µM. Moreover, in [3], the “concentration of dose-dependant inhibition of MMP-2” value came out at 5 µM. In series [4], the “Cell architecture modification, actin staining NIH3T3, focal complexes (FC)” value (“Cell architecture modification … (FC)” below) is given as “FC+” and the “Cell architecture modification, actin staining NIH3T3, ruffles (R)” value (“Cell architecture modification … (R)” for short) is “R−”. For the same compound, the “Cell architecture modification, actin staining MDA231, general observation” value in series [5] is on record as “increased MDA-MB-231 spreading; also recorded: cell spreading”.

Turning to `C/C=C/c1oc(CO)cc(=O)c1OCCCCCOc1ccc(Cl)c(Cl)c1CCC` [EH31101, (E)-3-[5-(3,4-Dichloro-2-propylphenyoxy)pentyloxy]-6-(hydroxymethyl)-2-(propen-1-yl)-4H-pyran-4-one], the melting point is 75 to 76 °C. In addition, the Colony formation result in series [1] was “−”. The “concentration at which an increase in invasive properties was noted” value in series [6] came out at 10 µM. The “concentration of dose-dependant inhibition of MMP-9” value in [2] came out at 0.1 µM. Moreover, in series [3], the “concentration of dose-dependant inhibition of MMP-2” value amounted to 0.1 µM. In series [4], the “Cell architecture modification … (FC)” value is recorded as “FC+” and the “Cell architecture modification … (R)” value is recorded as “R−”.

Take `CCCc1ccccc1OCCCCCOc1coc(CO)cc1=O` [EH18900, 5-[5-(2-Propylphenyloxy)pentyloxy]-2-(hydroxymethyl)-4H-pyran-4-one]: in series [1], the “Ras-dependent neoR clones formation” value is given as “inhibited” and the Colony formation entry was “+”. Further, the “concentration at which an increase in invasive properties was noted” value in [6] was found to be 50 µM. For the same compound, in [4], the “Cell architecture modification … (FC)” value is recorded as “FC+” and the “Cell architecture modification … (R)” value is given as “R−”. Besides, the “Cell architecture modification, actin staining HCT116, general observation” value in series [7] is “cell spreading”. Besides, in [8], the “Cell architecture modification, actin staining H460, general observation” value is reported as “cell spreading”.
